The target in this assay is T1, Androgen Receptor (AR) protein (Homo sapiens, UniProt P10275, T878A).
T1 construct: endogenous in cells; host or cells: LNCaP
Nature of the assay: Androgen Receptor (AR) protein degradation assay in LNCaP cells, western blotting. The format is cell-based. Conditions: 20 h; for inhibition at 0.01 µM: 0.01 μM compound; for inhibition at 0.1 µM: 0.1 μM compound; for inhibition at 1 µM: 1 μM compound; for inhibition at 10 µM: 10 μM compound. Here is the method:
Experimental Example 1: Androgen Receptor (AR) Protein Degradation Assay
After treating LNCaP cells with the synthesized Example compound, the amount of AR protein present in the cells was measured. The amount of AR protein was measured using western blotting detection method. The protocol of the experiment using LNCaP cells was as follows:
[Culture] LNCaP cells were resuspended in RPMI1640 MEDIUM (Hyclone, SH30027.01), 10% FBS (Hyclone, SV30207.02), and 1% Penicillin-streptomycin (Welgene, LS 202-02) media to be 3×10^5/mL. Then, 1 mL each was seeded in a 12-well plate. After that, they were cultured for 3 days.
[Compound treatment] 10 μl of 0.1, 1, 10, and 100 μM compound, which is the final compound treatment concentration and a 100× stock of 0.001, 0.01, 0.1, and 1 μM, was added in 1 ml media of each well, and 20 hours later, the cells were harvested.
[Cell Lysis] Cell pellets were suspended using 1% SDS lysis buffer (50 mM Tris, 1 mM EDTA, 1% SDS, pH 8.0, 0.5 mM PMSF, 1× Protease/Phosphatase inhibitor Cocktail (Cell Signaling Technology, 5872s)), and sonication (70% AMP, 5 cycles (30 sec ON/59 sec OFF)) was performed. Cell lysate was obtained after centrifugation at 4° C., 15000 g, for 20 minutes.
[Protein quantification] A BCA protein assay (SMART™ BCA Protein Assay Kit, iNtRON Biotechnology, 21071) was performed using a 96-well microplate. After adding 5 μl cell lysate and 5 μl 1% SDS lysis buffer to each well of the 96-well plate, 200 μl of BCA reagent (Reagent A:Reagent B=50:1) was additionally added. After incubation at 37° C. for 30 minutes, it was cooled at room temperature for 10 minutes. Then, absorbance was measured at a wavelength of 562 nm. The unknown protein concentration was measured using a BSA standard curve (0, 0.125, 0.25, 0.5, 1, 2 mg/ml). Western blotting samples were prepared by mixing cell lysate, 1% SDS lysis buffer, 4× Bolt™ LDS Sample buffer (Invitrogen, B0008), and 10× Bolt™ Sample Reducing Agent (Invitrogen, B0009) and boiling the mixture at 70° C. for 10 minutes.
[Electrophoresis] After loading 8 μg of protein sample into each well of Bolt™ 4 to 12%, Bis-Tris, 1.0 mm Mini Protein Gel, 17-well (Invitrogen, NW04127BOX), Bolt™ MES SDS Running Buffer (Invitrogen, B0002) was used for electrophoresis at 200V (constant V) for 50 minutes.
[Transfer] Using electrophoresis gel and Trans-Blot® Turbo™ Transfer Starter System (Bio-RAD, #17001918, Mini Nitrocellulose), transfer proceeded for 15 minutes under the condition of 1.3A (Constant A) and 25V (Limit V). To confirm protein transfer, 15 ml of Ponceau S solution (Sigma, P7170-1L) was used for staining for 1 minute, followed by washing to confirm the degree of transfer.
[Blocking] Membranes for AR detection were blocked for 45 minutes with 5% skim milk/0.2% TBST (Skim milk: BD, 232100/20× TBS: Biosesang, TR2008-100-00/10% Tween 20 Solution: Bio-RAD, #161-0781). Membranes for GAPDH and β-actin detection were blocked for 45 minutes with Odyssey blocking buffer: 0.1% TBST=1:1 (Odyssey blocking buffer: Li-COR Biosciences, 927-50000).
[Antibody and detection] The primary AR antibody (Androgen Receptor: CST, 5153s) was mixed with 5% skim milk/0.2% TBST at a ratio of 1:1000 and attached for 3 hours at room temperature. Primary β-actin antibody (GeneTex, 629630) was mixed with 5% BSA/0.2% TBST at a ratio of 1:2000 and attached for 3 hours at room temperature. Primary GAPDH antibody (GeneTex, 100118) was mixed with 5% BSA/0.2% TBST at a ratio of 1:2000 and attached for 3 hours at room temperature. After 3 hours, it was washed 3 times every 5 minutes using TBST (0.2% Tween 20). Anti-rabbit IgG, HRP-linked Antibody (CST, 7074s), secondary antibody for the AR antibody was mixed with 5% skim milk/0.2% TBST at a ratio of 1:5000 and attached for 45 minutes at room temperature. […]

T1 sequence (P10275 whole entry T878A): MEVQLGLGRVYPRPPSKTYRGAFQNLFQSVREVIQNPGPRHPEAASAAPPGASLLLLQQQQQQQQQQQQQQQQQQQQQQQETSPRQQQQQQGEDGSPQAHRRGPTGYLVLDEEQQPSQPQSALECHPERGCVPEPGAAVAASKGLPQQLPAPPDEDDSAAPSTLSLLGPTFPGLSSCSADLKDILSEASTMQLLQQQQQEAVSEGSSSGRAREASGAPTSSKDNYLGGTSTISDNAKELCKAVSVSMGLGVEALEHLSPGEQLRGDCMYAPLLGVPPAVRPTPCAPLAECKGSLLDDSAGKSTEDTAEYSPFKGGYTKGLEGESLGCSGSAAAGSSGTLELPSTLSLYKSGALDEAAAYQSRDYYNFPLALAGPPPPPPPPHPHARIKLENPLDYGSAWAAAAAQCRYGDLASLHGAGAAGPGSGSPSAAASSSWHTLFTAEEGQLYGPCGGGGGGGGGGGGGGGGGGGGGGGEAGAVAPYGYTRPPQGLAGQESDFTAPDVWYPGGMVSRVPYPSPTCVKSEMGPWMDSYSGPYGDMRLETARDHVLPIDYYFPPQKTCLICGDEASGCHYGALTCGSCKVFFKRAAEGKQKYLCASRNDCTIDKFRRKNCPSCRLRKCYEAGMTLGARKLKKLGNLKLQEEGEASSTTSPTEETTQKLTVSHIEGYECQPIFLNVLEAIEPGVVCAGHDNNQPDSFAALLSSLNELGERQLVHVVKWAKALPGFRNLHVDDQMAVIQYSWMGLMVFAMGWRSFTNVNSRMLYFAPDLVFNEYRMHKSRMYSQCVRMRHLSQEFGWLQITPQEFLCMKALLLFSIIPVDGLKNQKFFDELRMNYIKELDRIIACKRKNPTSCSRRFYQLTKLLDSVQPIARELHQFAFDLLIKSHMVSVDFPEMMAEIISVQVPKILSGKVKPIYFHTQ
T1 sequence (Q96SW2 whole entry partner): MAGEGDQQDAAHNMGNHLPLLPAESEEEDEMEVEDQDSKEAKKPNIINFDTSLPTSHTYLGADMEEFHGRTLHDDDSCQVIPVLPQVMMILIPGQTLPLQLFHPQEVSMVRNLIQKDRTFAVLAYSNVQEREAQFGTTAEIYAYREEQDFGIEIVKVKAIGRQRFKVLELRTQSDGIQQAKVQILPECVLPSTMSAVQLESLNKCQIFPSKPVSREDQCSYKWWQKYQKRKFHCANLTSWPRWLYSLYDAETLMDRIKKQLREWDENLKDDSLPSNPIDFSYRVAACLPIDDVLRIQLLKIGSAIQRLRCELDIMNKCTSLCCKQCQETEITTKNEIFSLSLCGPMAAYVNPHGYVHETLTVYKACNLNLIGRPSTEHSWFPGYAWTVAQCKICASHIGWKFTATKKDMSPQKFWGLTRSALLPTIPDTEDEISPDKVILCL

As to `N#Cc1ccc(N2CCC(C(=O)Nc3ccc(N4CCC(CN5CCN(c6ccc7c(c6)C(=O)N(C6CCC(=O)NC6=O)C7=O)CC5)CC4)cn3)CC2)cc1C(F)(F)F` (stereo not drawn) [Example 1, 1-(4-cyano-3-(trifluoromethyl)phenyl)-N-(5-(4-((4-(2-(2,6-dioxopiperidin-3-yl)-1,3-dioxoisoindolin-5-yl)piperazin-1-yl)methyl)piperidin-1-yl)pyridin-2-yl)piperidine-4-carboxamide], the inhibition (commonly the change of the read-out against control, counted positive when it falls) at 0.01 µM came out at 55%; the inhibition at 0.1 µM is 98%; the inhibition at 1 µM was found to be 99%; the inhibition at 10 µM is 99%.
Consider `N#Cc1ccc(N2CCC(C(=O)Nc3ccc(N4CCC(CN5CCN(c6ccc7c(c6)C(=O)N(C6CCC(=O)NC6=O)C7=O)CC5)CC4)cn3)CC2)cc1Cl` (stereo not drawn) [Example 2, 1-(3-chloro-4-cyanophenyl)-N-(5-(4-((4-(2-(2,6-dioxopiperidin-3-yl)-1,3-dioxoisoindolin-5-yl)piperazin-1-yl)methyl)piperidin-1-yl)pyridin-2-yl)piperidine-4-carboxamide], for which the inhibition at 0.01 µM is -9%, the inhibition at 0.1 µM was 68%, the inhibition at 1 µM stood at 97% and the inhibition at 10 µM stood at 96%.
`N#Cc1ccc(N2CCC(C(=O)Nc3ccc(N4CCC(CN5CCN(CCOc6ccc7c(c6)C(=O)N(C6CCC(=O)NC6=O)C7=O)CC5)CC4)cn3)CC2)cc1C(F)(F)F` (stereo not drawn) [Example 3, 1-(4-cyano-3-(trifluoromethyl)phenyl)-N-(5-(4-((4-(2-((2-(2,6-dioxopiperidin-3-yl)-1,3-dioxoisoindolin-5-yl)oxy)ethyl)piperazin-1-yl)methyl)piperidin-1-yl)pyridin-2-yl)piperidine-4-carboxamide]: the inhibition at 0.01 µM is 45%, the inhibition at 0.1 µM amounted to 98% and the inhibition at 1 µM was determined as 96%.
The like results for `N#Cc1ccc(N2CCC(C(=O)Nc3ccc(N4CCC(CN5CCN(Cc6ccc7c(c6)C(=O)N(C6CCC(=O)NC6=O)C7=O)CC5)CC4)cn3)CC2)cc1C(F)(F)F` (stereo not drawn) [Example 4, 1-(4-cyano-3-(trifluoromethyl)phenyl)-N-(5-(4-((4-((2-(2,6-dioxopiperidin-3-yl)-1,3-dioxoisoindolin-5-yl)methyl)piperazin-1-yl)methyl)piperidin-1-yl)pyridin-2-yl)piperidine-4-carboxamide] were, in that order, 24%, 86% and 96%.
In the case of `N#Cc1ccc(N2CCC(C(=O)Nc3ccc(N4CCC(CN5CCN(C(=O)CNc6ccc7c(c6)C(=O)N(C6CCC(=O)NC6=O)C7=O)CC5)CC4)cn3)CC2)cc1C(F)(F)F` (stereo not drawn) [Example 5, 1-(4-cyano-3-(trifluoromethyl)phenyl)-N-(5-(4-((4-((2-(2,6-dioxopiperidin-3-yl)-1,3-dioxoisoindolin-5-yl)glycyl)piperazin-1-yl)methyl)piperidin-1-yl)pyridin-2-yl)piperidine-4-carboxamide], the inhibition at 0.01 µM is 82%, the inhibition at 0.1 µM turned out to be 97%, the inhibition at 1 µM worked out at 97% and the inhibition at 10 µM stood at 97%.
For the compound `N#Cc1ccc(N2CCC(C(=O)Nc3ccc(N4CCC(CN5CCN(CC6CCN(c7ccc8c(c7)C(=O)N(C7CCC(=O)NC7=O)C8=O)CC6)CC5)CC4)cn3)CC2)cc1Cl` (stereo not drawn) [Example 7, 1-(3-chloro-4-cyanophenyl)-N-(5-(4-((4-((1-(2-(2,6-dioxopiperidin-3-yl)-1,3-dioxoisoindolin-5-yl)piperidin-4-yl)methyl)piperazin-1-yl)methyl)piperidin-1-yl)pyridin-2-yl)piperidine-4-carboxamide], the inhibition at 0.01 µM was 87%, the inhibition at 0.1 µM was 99%, the inhibition at 1 µM came to 99% and the inhibition at 10 µM was found to be 94%.
Consider `N#Cc1ccc(N2CCC(F)(C(=O)Nc3ccc(N4CCC(CN5CCN(CC6CCN(c7ccc8c(c7)C(=O)N(C7CCC(=O)NC7=O)C8=O)CC6)CC5)CC4)cn3)CC2)cc1C(F)(F)F` (stereo not drawn) [Example 8, 1-(4-cyano-3-(trifluoromethyl)phenyl)-N-(5-(4-((4-((1-(2-(2,6-dioxopiperidin-3-yl)-1,3-dioxoisoindolin-5-yl)piperidin-4-yl)methyl)piperazin-1-yl)methyl)piperidin-1-yl)pyridin-2-yl)-4-fluoropiperidine-4-carboxamide], for which the inhibition at 0.01 µM amounted to 37%, the inhibition at 0.1 µM worked out at 87% and the inhibition at 1 µM was found to be 95%.
For the compound `N#Cc1ncc(N2CCC(C(=O)Nc3ccc(N4CCC(CN5CCN(CC6CCN(c7ccc8c(c7)C(=O)N(C7CCC(=O)NC7=O)C8=O)CC6)CC5)CC4)cn3)CC2)cc1C(F)(F)F` (stereo not drawn) [Example 9, 1-(6-cyano-5-(trifluoromethyl)pyridin-3-yl)-N-(5-(4-((4-((1-(2-(2,6-dioxopiperidin-3-yl)-1,3-dioxoisoindolin-5-yl)piperidin-4-yl)methyl)piperazin-1-yl)methyl)piperidin-1-yl)pyridin-2-yl)piperidine-4-carboxamide], the inhibition at 0.01 µM was determined as 62%, the inhibition at 0.1 µM amounted to 95% and the inhibition at 1 µM came out at 95%.
Turning to `N#Cc1ncc(N2CCC(F)(C(=O)Nc3ccc(N4CCC(CN5CCN(CC6CCN(c7ccc8c(c7)C(=O)N(C7CCC(=O)NC7=O)C8=O)CC6)CC5)CC4)cn3)CC2)cc1C(F)(F)F` (stereo not drawn) [Example 10, 1-(6-cyano-5-(trifluoromethyl)pyridin-3-yl)-N-(5-(4-((4-((1-(2-(2,6-dioxopiperidin-3-yl)-1,3-dioxoisoindolin-5-yl)piperidin-4-yl)methyl)piperazin-1-yl)methyl)piperidin-1-yl)pyridin-2-yl)-4-fluoropiperidine-4-carboxamide], the inhibition at 0.01 µM was determined as 9%, the inhibition at 0.1 µM turned out to be 52% and the inhibition at 1 µM amounted to 74%.
In the case of `N#Cc1ccc(N2CCC(C(=O)Nc3ccc(N4CCC(CN5CCN(CC6CN(c7ccc8c(c7)C(=O)N(C7CCC(=O)NC7=O)C8=O)C6)CC5)CC4)cn3)CC2)cc1C(F)(F)F` (stereo not drawn) [Example 11, 1-(4-cyano-3-(trifluoromethyl)phenyl)-N-(5-(4-((4-((1-(2-(2,6-dioxopiperidin-3-yl)-1,3-dioxoisoindolin-5-yl)azetidin-3-yl)methyl)piperazin-1-yl)methyl)piperidin-1-yl)pyridin-2-yl)piperidine-4-carboxamide], the inhibition at 0.01 µM amounted to 76%, the inhibition at 0.1 µM came to 97%, the inhibition at 1 µM stood at 97% and the inhibition at 10 µM was 93%.
With `N#Cc1ccc(N2CCC(C(=O)Nc3ccc(N4CCC(CN5CCN(CC6CN(c7ccc8c(c7)C(=O)N(C7CCC(=O)NC7=O)C8=O)C6)CC5)CC4)cn3)CC2)cc1Cl` (stereo not drawn) [Example 12, 1-(3-chloro-4-cyanophenyl)-N-(5-(4-((4-((1-(2-(2,6-dioxopiperidin-3-yl)-1,3-dioxoisoindolin-5-yl)azetidin-3-yl)methyl)piperazin-1-yl)methyl)piperidin-1-yl)pyridin-2-yl)piperidine-4-carboxamide], the inhibition at 0.01 µM came to 52%, the inhibition at 0.1 µM amounted to 95%, the inhibition at 1 µM was 97% and the inhibition at 10 µM was 94%.

Values taken from patent US12122763B2, “Substituted piperidines for androgen receptor degradation” (UBIX THERAPEUTICS, INC., priority 2020, dated 2024).
